For assay [1], the system named is Staphylococcus aureus. In words: Antibacterial activity against Staphylococcus aureus by broth microdilution technique. Type of assay: functional, organism-based.
Assay [2] concerns Enterococcus faecalis. In words: Antibacterial activity against Streptococcus faecalis by broth microdilution technique. The class given is functional, organism-based.
Assay [3] deals with Klebsiella pneumoniae. In words: Antibacterial activity against Klebsiella pneumoniae by broth microdilution technique. The class given is functional, organism-based.
In assay [4] the test system is Escherichia coli. In words: Antibacterial activity against Escherichia coli by broth microdilution technique. The class given is functional, organism-based.
The subject of assay [5] is Pseudomonas aeruginosa. In words: Antibacterial activity against Pseudomonas aeruginosa by broth microdilution technique. The class given is functional, organism-based.
Assay [6] has as its system Candida albicans. In words: Antifungal activity against Candida albicans by broth microdilution technique. The class given is functional, organism-based.
The subject of assay [7] is Candida parapsilosis. The assay is described as follows: Antifungal activity against Candida parapsilosis ATCC 22019 by broth microdilution technique. Type of assay: functional, organism-based. The settings on record: Lodderomyces parapsilosis.
The test system of assay [8] is Cryptococcus neoformans. In words: Antifungal activity against Cryptococcus neoformans by broth microdilution technique. The class given is functional, organism-based.
The test system of assay [9] is Aspergillus fumigatus. The assay is described as follows: Antifungal activity against Aspergillus fumigatus by broth microdilution technique. Type of assay: functional, organism-based.
In assay [10] the test system is Sporothrix schenckii. In words: Antifungal activity against Sporothrix schenckii by broth microdilution technique. The class given is functional, organism-based.
Assay [11] deals with Trichophyton benhamiae. The assay is described as follows: Antifungal activity against Trichophyton mentagrophytes by broth microdilution technique. Type of assay: functional, organism-based, Arthroderma benhamiae.
[12] abbreviates: Staphylococcus aureus, read-out: IC50.
The mark [13] stands for this setting: Enterococcus faecalis, read-out: IC50.
Setting [14] is: Klebsiella pneumoniae, read-out: IC50.
[15] abbreviates: Escherichia coli, read-out: IC50.
[16] abbreviates: Pseudomonas aeruginosa, read-out: IC50.

For 6 molecules, MIC and IC50 results are on record in ChEMBL document CHEMBL1139716, “Naphtho[2,3-b][1,4]-thiazine-5,10-diones and 3-substituted-1,4-dioxo-1,4-dihydronaphthalen-2-yl-thioalkanoate derivatives: synthesis and biological evaluation as potential antibacterial and antifungal agents” (Bioorg Med Chem Lett, 2006).

Converted amounts (≈) assume the structure as drawn.

For `CCOC(=O)CSC1=C(NCc2ccccc2)C(=O)c2ccccc2C1=O`, the MIC was 12.5 µg/mL (≈ 32.8 µM) in assay [1] (Staphylococcus aureus); more than 50 µg/mL in [2] (Enterococcus faecalis); 25 µg/mL (≈ 65.5 µM) in assay [3] (Klebsiella pneumoniae); 12.5 µg/mL (≈ 32.8 µM) in [4] (Escherichia coli); more than 50 µg/mL in assay [5] (Pseudomonas aeruginosa); more than 50 µg/mL in [6]. In addition, the MIC was more than 50 µg/mL in assay [7]; more than 50 µg/mL in [8]; more than 50 µg/mL in assay [9]; more than 50 µg/mL in assay [10]; 6.25 µg/mL (≈ 16.4 µM) in [11]. In addition, the IC50 in assay [1] (setting [12]) was 11.6 µg/mL (≈ 30.4 µM); in assay [2] (setting [13]), more than 50 µg/mL; in assay [3] (setting [14]) it was 22.3 µg/mL (≈ 58.6 µM); in assay [4] (setting [15]), 9.2 µg/mL (≈ 24.1 µM); in assay [5] (setting [16]), more than 50 µg/mL; in assay [6] it was more than 50 µg/mL. Also, the IC50 in assay [7] is more than 50 µg/mL; in assay [8], more than 50 µg/mL; in [9], more than 50 µg/mL; in assay [10] it was more than 50 µg/mL; in [11], 4.5 µg/mL (≈ 11.8 µM).
Turning to `CCOC(=O)C(C)SC1=C(Cl)C(=O)c2ccccc2C1=O` (configuration not stated), the MIC in [1] (Staphylococcus aureus) is 12.5 µg/mL (≈ 38.5 µM); in assay [2] (Enterococcus faecalis) it was 12.5 µg/mL (≈ 38.5 µM); in [3] (Klebsiella pneumoniae), 50 µg/mL (≈ 154 µM); in assay [4] (Escherichia coli), 12.5 µg/mL (≈ 38.5 µM); in assay [5] (Pseudomonas aeruginosa), 50 µg/mL (≈ 154 µM); in [6] it was more than 50 µg/mL. In addition, the MIC is more than 50 µg/mL in assay [7]; 12.5 µg/mL (≈ 38.5 µM) in assay [8]; more than 50 µg/mL in assay [9]; 25 µg/mL (≈ 77 µM) in assay [10]; more than 50 µg/mL in [11]. The IC50 was 7.95 µg/mL (≈ 24.5 µM) in [1] (setting [12]); 9.52 µg/mL (≈ 29.3 µM) in assay [2] (setting [13]); 28.3 µg/mL (≈ 87.3 µM) in assay [3] (setting [14]); 6.34 µg/mL (≈ 19.5 µM) in assay [4] (setting [15]); 48.3 µg/mL (≈ 149 µM) in assay [5] (setting [16]); more than 50 µg/mL in assay [6]. Also, the IC50 in assay [7] is more than 50 µg/mL; in assay [8], 11.5 µg/mL (≈ 35.3 µM); in assay [9] it was more than 50 µg/mL; in assay [10], 22.7 µg/mL (≈ 69.8 µM); in [11] it was more than 50 µg/mL.
Consider `CCOC(=O)CSC1=C(NCC(C)C)C(=O)c2ccccc2C1=O`, for which the MIC was 25 µg/mL (≈ 72 µM) in assay [1] (Staphylococcus aureus); 25 µg/mL (≈ 72 µM) in [2] (Enterococcus faecalis); 50 µg/mL (≈ 144 µM) in [3] (Klebsiella pneumoniae); 50 µg/mL (≈ 144 µM) in [4] (Escherichia coli); 50 µg/mL (≈ 144 µM) in [5] (Pseudomonas aeruginosa); more than 50 µg/mL in [6]. Moreover, the MIC was more than 50 µg/mL in assay [7]; more than 50 µg/mL in [8]; more than 50 µg/mL in assay [9]; 50 µg/mL (≈ 144 µM) in [10]; 12.5 µg/mL (≈ 36 µM) in [11]. For the same molecule, the IC50 in assay [1] (setting [12]) was 21.6 µg/mL (≈ 62.1 µM); in assay [2] (setting [13]), 19.5 µg/mL (≈ 56.2 µM); in assay [3] (setting [14]), 38.5 µg/mL (≈ 111 µM); in [4] (setting [15]), 39.3 µg/mL (≈ 113 µM); in assay [5] (setting [16]), 42.5 µg/mL (≈ 122 µM); in assay [6], more than 50 µg/mL. Moreover, the IC50 is more than 50 µg/mL in [7]; more than 50 µg/mL in assay [8]; more than 50 µg/mL in assay [9]; 22.8 µg/mL (≈ 65.7 µM) in [10]; 9.8 µg/mL (≈ 28.2 µM) in [11].
As to `CC1(C)S[C@@H]2[C@H](NC(=O)[C@H](N)c3ccccc3)C(=O)N2[C@H]1C(=O)O` [AMPICILLIN], the MIC in assay [1] (Staphylococcus aureus) was 0.9 µg/mL (≈ 2.58 µM); in assay [2] (Enterococcus faecalis) it was 0.02 µg/mL (≈ 0.0572 µM); in assay [3] (Klebsiella pneumoniae), 0.09 µg/mL (≈ 0.258 µM); in [5] (Pseudomonas aeruginosa), 50 µg/mL (≈ 143 µM). Moreover, the IC50 in assay [1] (setting [12]) was 0.74 µg/mL (≈ 2.12 µM); in assay [2] (setting [13]) it was 0.01 µg/mL (≈ 0.0286 µM); in assay [3] (setting [14]), 0.08 µg/mL (≈ 0.229 µM); in [4] (setting [15]), 0.01 µg/mL (≈ 0.0286 µM); in assay [5] (setting [16]), 48.7 µg/mL (≈ 139 µM).
On to GENTAMICIN, for which the IC50 in [1] turned out to be 4.46 µg/mL; in assay [2], 0.62 µg/mL; in [3], 0.34 µg/mL; in [4], 0.11 µg/mL; in assay [5] it was 24.64 µg/mL.
As for `CCOC(=O)C(C)SC1=C(NCCO)C(=O)c2ccccc2C1=O` (configuration not stated), the MIC worked out at 6.25 µg/mL (≈ 17.9 µM) in assay [1] (Staphylococcus aureus); 6.25 µg/mL (≈ 17.9 µM) in assay [2] (Enterococcus faecalis); 12.5 µg/mL (≈ 35.8 µM) in [3] (Klebsiella pneumoniae); 3.12 µg/mL (≈ 8.93 µM) in assay [4] (Escherichia coli); 25 µg/mL (≈ 71.5 µM) in assay [5] (Pseudomonas aeruginosa); 25 µg/mL (≈ 71.5 µM) in assay [6]. The MIC in [7] is 25 µg/mL (≈ 71.5 µM); in [8], 12.5 µg/mL (≈ 35.8 µM); in assay [9] it was 25 µg/mL (≈ 71.5 µM); in assay [10], 25 µg/mL (≈ 71.5 µM); in [11], more than 50 µg/mL. Further, the IC50 worked out at 4.82 µg/mL (≈ 13.8 µM) in assay [1] (setting [12]); 5.42 µg/mL (≈ 15.5 µM) in [2] (setting [13]); 11.6 µg/mL (≈ 33.1 µM) in assay [3] (setting [14]); 2.24 µg/mL (≈ 6.41 µM) in assay [4] (setting [15]); 24.5 µg/mL (≈ 70.2 µM) in assay [5] (setting [16]); 23.3 µg/mL (≈ 66.6 µM) in [6]. Further, the IC50 in assay [7] was 22.5 µg/mL (≈ 64.5 µM); in [8] it was 6.92 µg/mL (≈ 19.8 µM); in [9] it was 23.9 µg/mL (≈ 68.5 µM); in assay [10] it was 21.9 µg/mL (≈ 62.8 µM); in assay [11], more than 50 µg/mL.
